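Five concentrations, 48 hours, 96-well plates. The concentration for full growth arrest is given as TGI.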

Among the test systems are DU-145 prostate; HL-60(TB) leukemia; HT29 colon; LOX IMVI melanoma; M14 melanoma; MOLT-4 leukemia; OVCAR-5 ovarian; RPMI-8226 leukemia; SF-295 CNS; SK-OV-3 ovarian.
Holding throughout (test): NCI tumour cell line growth inhibition, 48 h

As to `CCOC(=O)CCC(C(=O)OCC)n1nc2ccc(Nc3c(C)[n+]([O-])c4cc(F)c(OCC)cc4[n+]3[O-])cc2n1` (stereo not given), the TGI in the test with DU-145 prostate, with HL-60(TB) leukemia, with HT29 colon, in the test on LOX IMVI melanoma, in the test with M14 melanoma and with MOLT-4 leukemia was greater than 100 µM throughout. For the same compound, the TGI in the test on OVCAR-5 ovarian, in the test with RPMI-8226 leukemia, with SF-295 CNS and in the test with SK-OV-3 ovarian was greater than 100 µM throughout.

For the compound `Clc1cc(Cl)c2cc3cccc[n+]3cc2c1Cl`, the TGI with DU-145 prostate was 34 µM; with HL-60(TB) leukemia, 29.7 µM; in the test with HT29 colon it was 30.7 µM; with LOX IMVI melanoma, 34.7 µM; in the test on M14 melanoma it was 39 µM; with MOLT-4 leukemia, 31.3 µM. Moreover, the TGI in the test with OVCAR-5 ovarian amounted to 38.7 µM; with RPMI-8226 leukemia, 45.7 µM; in the test with SF-295 CNS, 39.8 µM; with SK-OV-3 ovarian, 30.1 µM.

On to `CC(C)(C)OC(=O)N1C(OP(=O)(Oc2ccccc2)Oc2ccccc2)=CSc2ccccc21`, for which the TGI was greater than 100 µM in the test with DU-145 prostate; 43.1 µM in the test with HL-60(TB) leukemia; greater than 100 µM in the test on HT29 colon; greater than 100 µM with LOX IMVI melanoma; 68.6 µM with M14 melanoma; 66 µM in the test on MOLT-4 leukemia. Further, the TGI with OVCAR-5 ovarian is greater than 100 µM; with RPMI-8226 leukemia, 52 µM; in the test with SF-295 CNS it was greater than 100 µM; with SK-OV-3 ovarian, greater than 100 µM.
